Where two headings read alike, the source gives them in different places.
What was measured:
[1] = Acute toxicity in Wistar male mice; type: in vivo
Protocol: Each of 10 Wistar male mice, weighing 16-18 g, was administered with 7 g/kg of taurine (as an aqueous solution of 100 ml/kg).

[2] = system: guinea pigs; conditions: Dietrich & Diacono 1971; cited from earlier work
[3] = system: patients with heart failure; type: in vivo, human patients; parameters: key to Severity After, Score: summed symptom/sign points; higher = worse heart failure; conditions: for Severity After, Score / Severity After, NYHA: 2 g twice daily, granules
Protocol: Twenty-four patients with heart failure were administered every day, two doses containing 2 g each of taurine as granules, and then monitored. The underlying cause of heart failure and the combined therapeutic agents (+: combined, -: not combined) for each patient are shown in Table 2. The therapeutic agents combined with taurine were standard agents which have long been used. Most of the patients had not been improved or have been even worsened under the therapeutic agents in Table 2, prior to the new therapeutic modality of this invention being used. The severity of heart failure was expressed by NYHA Function Class (I to IV, mild to severe according to New York Heart Association) and a score based on observation of clinical symptoms and signs as shown in Table 3. The presence of a symptom or sign was given the point value indicated in the right column and the values for each of the symptoms and signs were summed up for the score. An increase in the score corresponds to a worsening in the patient's heart condition. […]

[4] = 7 g/kg as aqueous solution 100 ml/kg, 7 days observation, route not given

NCCS(=O)(=O)O [taurine, 2-aminoethanesulfonic acid]
behavioral changes [1, 4]: nor behavioral changes | death [1, 4]: neither death | death and behavioral changes ([1]; intravenous, same results = neither death nor behavioral changes): the same results were obtained | positive inotropic activity [2]: positive inotropic activity | adverse reaction ([3]; human, in vivo): without any adverse reaction | Severity After, Score ([3]; patient 1, week 20, before 7.5, with digitalis): 2 | Severity After, NYHA ([3]; patient 1, week 20, before II, with digitalis): I | Severity After, Score ([3]; patient 2, week 4, before 6.5, with digitalis, diuretics): 6.5 | Severity After, Score ([3]; patient 3, week 8, before 13, with digitalis, diuretics): 5 | Severity After, Score ([3]; patient 4, week 32, before 12, with digitalis, diuretics, vasodilators): 2.5 | Severity After, NYHA ([3]; patient 4, week 32, before III, with digitalis, diuretics, vasodilators): I | Severity After, Score ([3]; patient 5, week 8, before 10, with digitalis, diuretics): 2.5 | Severity After, Score ([3]; patient 6, week 8, before 5, no combined agent): 2.5 | Severity After, Score ([3]; patient 7, week 8, before 6, with digitalis, diuretics): 3 | Severity After, Score ([3]; patient 8, week 4, before 6, with digitalis, diuretics): 5 | Severity After, Score ([3]; patient 9, week 4, before 4, no combined agent): 3 | Severity After, Score ([3]; patient 10, week 4, before 9.5, with diuretics, vasodilators): 5 | Severity After, Score ([3]; patient 11, week 6, before 9.5, with diuretics, vasodilators): 6 | Severity After, Score ([3]; patient 12, week 2, before 3.5, no combined agent): 3.5 | Severity After, Score ([3]; patient 13, week 2, before 8.5, with diuretics): 7.5 | Severity After, Score ([3]; patient 14, week 2, before 3.5, with diuretics): 3 | Severity After, Score ([3]; patient 15, week 4, before 4.5, with diuretics): 1 | Severity After, Score ([3]; patient 16, week 4, before 5, with digitalis, diuretics, vasodilators): 0.5 | Severity After, Score ([3]; patient 17, week 4, before 9, with digitalis, diuretics): 1 | Severity After, Score ([3]; patient 18, week 4, before 13, with digitalis, diuretics): 9 | Severity After, Score ([3]; patient 19, week 4, before 5.5, with digitalis, diuretics): 4.5 | Severity After, Score ([3]; patient 20, week 2, before 5, with diuretics): 3 | Severity After, Score ([3]; patient 21, week 4, before 9.5, combined agent ambiguous (none / diuretics)): 4 | Severity After, Score ([3]; patient 22, week 4, before 4.5, with diuretics): 3 | Severity After, Score ([3]; patient 23, week 4, before 5.5, no combined agent): 5.5 | Severity After, Score ([3]; patient 24, week 4, before 9, with digitalis, diuretics): 4 | improvement with combined use of taurine ([3]; patients not controllable or worsened under prolonged conventional agents): unexpectedly improved | subjective symptoms and objective signs of heart failure ([3]; patients with heart failure, general statement): effectively ameliorates the subjective symptoms and objective signs of heart failure
